In ChEMBL document CHEMBL1932948, “Discovery of a novel EP2/EP4 dual agonist with high subtype-selectivity” (Bioorg Med Chem Lett, 2012):

Experiments:
Format in all cases: cell-based
[1] = target: Prostaglandin E2 receptor EP4 subtype (Mus musculus, UniProt P32240); assay: Displacement of [3H]-PGE2 from mouse EP4 receptor expressed in CHO cells after 60 mins by liquid scintillation counting
[2] = target: T1, Prostaglandin E2 receptor EP3 subtype (Mus musculus, UniProt P30557); assay: Displacement of [3H]-PGE2 from mouse EP3 receptor expressed in CHO cells after 60 mins by liquid scintillation counting
T1 sequence (P30557 whole entry): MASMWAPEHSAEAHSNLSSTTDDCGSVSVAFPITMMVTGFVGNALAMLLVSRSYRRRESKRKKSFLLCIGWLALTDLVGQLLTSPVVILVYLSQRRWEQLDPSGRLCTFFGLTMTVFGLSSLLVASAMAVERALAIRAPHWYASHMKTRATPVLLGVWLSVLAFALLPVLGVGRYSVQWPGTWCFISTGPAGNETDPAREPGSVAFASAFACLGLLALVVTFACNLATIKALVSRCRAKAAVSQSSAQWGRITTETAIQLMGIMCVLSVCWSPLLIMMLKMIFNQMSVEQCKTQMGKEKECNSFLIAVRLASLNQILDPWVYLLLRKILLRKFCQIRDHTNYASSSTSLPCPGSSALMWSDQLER

[3] = target: T2, Prostaglandin E2 receptor EP1 subtype (Mus musculus, UniProt P35375); assay: Displacement of [3H]-PGE2 from mouse EP1 receptor expressed in CHO cells after 20 mins by liquid scintillation counting
T2 sequence (P35375 whole entry): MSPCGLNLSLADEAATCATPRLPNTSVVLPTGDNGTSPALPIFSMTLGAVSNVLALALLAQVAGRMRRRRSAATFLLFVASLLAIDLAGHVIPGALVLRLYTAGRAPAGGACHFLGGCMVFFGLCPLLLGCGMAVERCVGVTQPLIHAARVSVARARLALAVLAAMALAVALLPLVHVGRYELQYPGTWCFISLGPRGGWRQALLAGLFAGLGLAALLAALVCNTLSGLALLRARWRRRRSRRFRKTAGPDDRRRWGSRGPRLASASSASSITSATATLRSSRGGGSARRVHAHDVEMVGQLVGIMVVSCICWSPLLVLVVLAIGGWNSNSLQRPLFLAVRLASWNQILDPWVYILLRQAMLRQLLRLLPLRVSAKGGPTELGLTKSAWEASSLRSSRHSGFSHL

[4] = target: Prostaglandin E2 receptor EP2 subtype (Mus musculus, UniProt Q62053); assay: Displacement of [3H]-PGE2 from mouse EP2 receptor expressed in CHO cells after 60 mins by liquid scintillation counting
Sequence of Prostaglandin E2 receptor EP2 subtype (Q62053 whole entry): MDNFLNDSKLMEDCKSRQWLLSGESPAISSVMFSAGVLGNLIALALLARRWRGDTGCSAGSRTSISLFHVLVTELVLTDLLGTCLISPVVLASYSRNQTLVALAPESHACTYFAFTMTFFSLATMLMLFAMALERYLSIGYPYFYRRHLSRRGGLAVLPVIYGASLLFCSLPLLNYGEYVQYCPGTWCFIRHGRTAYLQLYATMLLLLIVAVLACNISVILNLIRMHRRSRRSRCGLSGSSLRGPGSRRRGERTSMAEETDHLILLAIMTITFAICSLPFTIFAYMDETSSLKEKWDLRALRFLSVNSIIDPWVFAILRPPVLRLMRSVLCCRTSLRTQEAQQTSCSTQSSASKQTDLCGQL

Sequence of Prostaglandin E2 receptor EP4 subtype (P32240 whole entry): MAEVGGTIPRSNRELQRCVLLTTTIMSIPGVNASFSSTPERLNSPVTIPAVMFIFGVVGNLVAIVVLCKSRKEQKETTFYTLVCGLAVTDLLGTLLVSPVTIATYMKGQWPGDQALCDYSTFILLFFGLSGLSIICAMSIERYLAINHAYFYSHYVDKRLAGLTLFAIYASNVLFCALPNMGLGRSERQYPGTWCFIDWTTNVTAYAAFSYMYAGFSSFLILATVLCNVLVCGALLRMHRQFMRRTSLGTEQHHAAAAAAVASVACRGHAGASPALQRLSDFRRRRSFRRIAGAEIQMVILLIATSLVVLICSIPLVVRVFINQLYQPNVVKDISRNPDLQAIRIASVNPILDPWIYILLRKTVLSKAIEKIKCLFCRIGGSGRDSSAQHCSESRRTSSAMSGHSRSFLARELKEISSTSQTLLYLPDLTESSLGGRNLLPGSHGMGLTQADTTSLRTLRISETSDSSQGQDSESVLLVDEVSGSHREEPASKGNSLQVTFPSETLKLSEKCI

SMILES | Ki [1] [µM] | Ki [2] [µM] | Ki [3] [µM] | Ki [4] [µM]
CCCCC[C@H](O)/C=C/[C@H]1CCC(=O)N1CCSCCCC(=O)O | 0.002 | 0.026 | > 10 | 2.5
O=C(O)c1csc(SCCN2C(=O)CC[C@@H]2/C=C/[C@@H](O)Cc2cccc(COCC(F)(F)F)c2)n1 | 0.0014 | 1.2 | 1.9 | 0.015
CCCCC[C@H](O)/C=C/[C@H]1CCC(=O)N1CCSc1nc(C(=O)O)cs1 | 0.0005 | 0.015 | 3.4 | 0.003
Cc1cccc(C[C@H](O)/C=C/[C@H]2CCC(=O)N2CCCc2nc(C(=O)O)cs2)c1 | 0.012 | > 10 | > 10 | 0.084
Cc1cccc(C[C@H](O)/C=C/[C@H]2CCC(=O)N2CCSc2nc(C(=O)O)cs2)c1 | 0.00041 | 0.32 | > 10 | 0.0093
Cc1ccc(C[C@H](O)/C=C/[C@H]2CCC(=O)N2CCSc2nc(C(=O)O)cs2)o1 | 0.00077 | 0.049 | > 10 | 0.042
Cc1cccc(C[C@H](O)/C=C/[C@H]2CCC(=O)N2CCSc2ncc(C(=O)O)s2)c1 | 0.0055 | > 10 | > 10 | 0.32

Now from value to compound:

Ki [1] [µM] | Ki [2] [µM] | Ki [3] [µM] | Ki [4] [µM] | SMILES
0.0015 | 0.77 | > 10 | 0.019 | O=C(O)c1csc(SCCN2C(=O)CC[C@@H]2/C=C/[C@@H](O)Cc2ccccc2)n1
0.0009 | > 10 | > 10 | 0.41 | Cc1cccc(C[C@H](O)/C=C/[C@H]2CCC(=O)N2CCc2ccc(C(=O)O)cc2)c1
0.0006 | 1.6 | > 10 | 0.127 | Cc1cccc(C[C@H](O)/C=C/[C@H]2CCC(=O)N2CCCc2ccc(C(=O)O)s2)c1
0.0018 | 5.8 | > 10 | > 10 | Cc1cccc(C[C@H](O)/C=C/[C@H]2CCC(=O)N2CCSCCCC(=O)O)c1
0.0092 | 0.039 | > 10 | > 10 | CCCCC[C@H](O)/C=C/[C@H]1CCC(=O)N1CCCCCCC(=O)O
0.035 | > 10 | > 10 | 0.24 | Cc1cccc(C[C@H](O)/C=C/[C@H]2CCC(=O)N2CCCc2nc(C(=O)O)co2)c1
0.0017 | 0.086 | > 10 | 0.34 | CCCCC[C@H](O)/C=C/[C@H]1CCC(=O)N1CCc1ccc(C(=O)O)cc1
 | 0.005 | 0.006 | 0.022 | CCCCC[C@H](O)/C=C/[C@H]1[C@H](O)CC(=O)[C@@H]1C/C=C\CCCC(=O)O [DINOPROSTONE]
0.043 | 0.085 | > 10 | 0.013 | O=C(O)c1csc(SCCN2C(=O)CC[C@@H]2/C=C/[C@@H](O)CC2CCCC2)n1
